Publication PMC12529164, “Design, Synthesis, Structure–Activity Relationships, and Preliminary Anticancer Properties of Menthol-Modified Coumarin Esters and 3,4-Dihydrocoumarin Derivatives” (ACS Omega, 2025)
Where two headings read alike, the source gives them in different places.

Legend:
MDA-MB-231 = assay: MTT cytotoxicity assay; format: cell-based, human; settings: for IC50: MDA-MB-231, MTT, 72 h, human breast adenocarcinoma; for SI MDA-MB-231: SI = IC50 for normal cell line (HaCaT)/IC50 cancer cell line
Protocol: (§1) The human primary (SW480) and metastatic (SW620) colon cancer, metastatic prostate cancer (PC3), breast adenocarcinoma (MDA-MB-231) and human immortal keratinocyte (HaCaT) cell lines were recruited from the American Type Culture Collection (ATCC). The cells were cultured in the recommended medium according to protocols (RPMI 1640 for PC3, MEM for SW480 and SW620, as well as DMEM for MDA-MB-231 and HaCaT cells) with addition of 10% FBS, penicillin (100 U/mL), and streptomycin (100 μg/mL) and cultured in 37 °C/5% CO2 in a humidified incubator. Then, the cells were passaged at a confluence of 80–90% by a treatment with 0.25% trypsin (Gibco Life Technologies) and used for studies.
(§2) They were added to 96-well plates with seeded normal and cancer cells (1 × 10^4 cells per well) and incubated for 72 h. MTT analysis was performed according to a previous study.

PC3 [1] = assay: MTT cytotoxicity assay; format: cell-based, human; settings: for IC50: PC-3, MTT, 72 h, human metastatic prostate cancer; for SI PC3: SI = IC50 for normal cell line (HaCaT)/IC50 cancer cell line
Protocol: as §1, §2

SW480 = assay: MTT cytotoxicity assay; format: cell-based, human; settings: for SI SW480: SI = IC50 for normal cell line (HaCaT)/IC50 cancer cell line; for IC50: SW480, MTT, 72 h, human primary colon cancer
Protocol: as §1, §2

SW620 [2] = assay: MTT cytotoxicity assay; format: cell-based, human; settings: for SI SW620: SI = IC50 for normal cell line (HaCaT)/IC50 cancer cell line; for IC50: SW-620, MTT, 72 h, human metastatic colon cancer
Protocol: as §1, §2

HaCaT [3] = assay: MTT cytotoxicity assay, normal cells; format: cell-based; settings: 72 h, human immortal keratinocytes (normal cells); for IC50: HaCaT
Protocol: as §1, §2

[4] = tested on: tested cancer cell lines (SW480, SW620, PC3, MDA-MB-231); assay: MTT assay, mean over tested cancer cell lines; format: cell-based; settings: Homo sapiens, mean of the four cancer cell lines
Protocol: They were added to 96-well plates with seeded normal and cancer cells (1 × 10^4 cells per well) and incubated for 72 h. MTT analysis was performed according to a previous study. […]

Trypan blue assay = format: cell-based, human; settings: human, HaCaT cells, compound at IC50, 72 h, mean
Protocol: (§3) The total cell count was assessed by trypan blue exclusion dye assay using automated cell counter (Countess Invitrogen). Untreated cells were used as the control. Each experiment was repeated 5 times.

HaCaT [5] = assay: Trypan blue assay; format: cell-based, human; settings: compound at IC50, 72 h; for cell number: mean; for reduction of number of cells: vs control
Protocol: as §3

PC3 [6] = assay: Trypan blue assay; format: cell-based, human; settings: PC3, compound at IC50, 72 h
Protocol: as §3

HaCaT [7] = assay: Annexin V-FITC/PI flow cytometry; format: cell-based, human; settings: compound at IC50, 72 h, mean
Protocol: (§4) The apoptotic and necrotic cells treated with derivatives 2b, 4a, 4b were detected using FITC Annexin V Apoptosis Detection Kit I (BD Biosciences Pharmingen). Briefly, cells (2 × 10^5 cells/well) were seeded in 6-well plates in supplemented medium. […] Then cells were harvested, washed, and labeled with Annexin V-FITC and propidium iodide (PI) according to the manufacturer’s protocol. The stained cells were analyzed by flow cytometry. The cells were identified as early apoptotic (Annexin V+/PI−) or late apoptotic/necrotic (Annexin V+/PI+).

PC3 [8] = assay: Annexin V-FITC/PI flow cytometry; format: cell-based, human; settings: PC3, compound at IC50, 72 h, mean
Protocol: as §4

IL-6 in HaCaT cells = assay: Interleukin-6 ELISA; format: cell-based, human; settings: compound at IC50, 72 h; for IL-6 concentration: ELISA
Protocol: (§5) The concentration of Interleukin-6 (IL-6) was measured in cell culture supernatant using Interleukin IL-6 High Sensitivity ELISA kit (Diaclon SAS, Besancon Cedex, France). Cells (1 × 10^5 cells/well) were seeded in 12-well plates with medium for 24 h. […] After this incubation, the supernatants were collected and 100 μL of supernatant samples, control solutions and blank were added to precoated ELISA plate with the preceding plotting of the standard curve. Then 50 μL of diluted biotinylated antihuman interleukin-6 antibody was added and incubated at room temperature for 3 h. Afterward, the plate was washed three times and 100 μL streptavidin-HRP solution was added to each well. After 30 min incubation, the plate was washed again three times and 100 μL of tetramethylbenzidine (TMB) solution was added to each well. The plate was incubated for 15 min in the dark. The reaction was stopped by adding 100 μL of H2SO4 solution. The absorbance was estimated using a spectrophotometer at 450 nm (Microplate Spectrophotometer Thermo Scientific Multiskan GO).

IL-6 in PC3 cells = assay: Interleukin-6 ELISA; format: cell-based, human; settings: PC3, compound at IC50, 72 h
Protocol: as §5

SW620 [9] = assay: Trypan blue assay; format: cell-based, human; settings: SW620, compound at IC50, 72 h
Protocol: as §3

SW620 [10] = assay: Annexin V-FITC/PI flow cytometry; format: cell-based, human; settings: SW620, compound at IC50, 72 h, mean
Protocol: as §4

IL-6 in SW620 cells = assay: Interleukin-6 ELISA; format: cell-based, human; settings: SW620, compound at IC50, 72 h
Protocol: as §5

[11] = read-out: average IC50 against tested cancer cell lines

Structure (SMILES)	IC50 (MDA-MB-231) [µM]	SI MDA-MB-231 (MDA-MB-231)	IC50 (PC3 [1]) [µM]	SI PC3 (PC3 [1])	SI SW480 (SW480)	IC50 (SW480) [µM]	SI SW620 (SW620 [2])	IC50 (SW620 [2]) [µM]	IC50 (HaCaT [3]) [µM]	IC50 [4, 11] [µM]	viability at 72 h (Trypan blue assay) [%]	cell number (HaCaT [5])	reduction of number of cells (HaCaT [5])	Early apoptosis [%] (HaCaT [7])	Late apoptosis [%] (HaCaT [7])	Necrosis [%] (HaCaT [7])	IL-6 concentration (IL-6 in HaCaT cells) [pg/mL]	other results
COc1cccc2c1OC(=O)C(C(=O)O[C@@H]1C[C@H](C)CC[C@H]1C(C)C)C2P(=O)(c1ccccc1)c1ccccc1 (mixture of isomers) [Compound 4b, (1R,2S,5R)-2-Isopropyl-5-methylcyclohexyl-4-(diphenylphosphoryl)-8-methoxy-2-oxochromane-3-carboxylate]	47.6 ± 4.73	0.58	9.9 ± 1.42	2.78	0.73	37.4 ± 2.45	1.39	19.8 ± 0.63	27.6 ± 3.12	28.7	98.3	5.23 x106	16.6%	2.55	0.85	0.45	10.5 ± 0.94	IC50 ([4]; Table S7, >100 entered as 100, read-out: mean anticancer IC50): 28.7 µM; cell number (PC3 [6]; mean): 4.26 x106; viability (%) (PC3 [6]; mean): 94%; reduction of number of live cells (PC3 [6]; vs control): 35.3%; Early apoptosis [%] (PC3 [8]): 10.50%; Late apoptosis [%] (PC3 [8]): 3.90%; Necrosis [%] (PC3 [8]): 0.20%; reduction of IL-6 concentration (IL-6 in HaCaT cells; vs control): did not alter IL-6 secretion; IL-6 concentration (IL-6 in PC3 cells; ELISA): 0.9 ± 0.03 pg/mL; reduction of IL-6 level (IL-6 in PC3 cells; vs control): 79.2%
CCOP(=O)(OCC)c1cc2cccc(OC)c2oc1=O [Compound 2b, Diethyl (8-Methoxy-2-oxo-2H-chromen-3-yl)phosphonate]	> 100	1	> 100	1	1	> 100	9.8	10.2 ± 1.63	> 100	> 77.5	94.7	5.66 x106	below 10%	2.60	1.30	0.30	11.3 ± 0.59	IC50 HaCaT (HaCaT [3]): did not show any cytotoxic effects; cell number (SW620 [9]; mean): 2.26 x106; viability (%) (SW620 [9]; mean): 98.66%; reduction of number of live cells (SW620 [9]; vs control): 36.4%; Necrosis [%] (SW620 [10]): 0.60%; increase in interleukin level (IL-6 in HaCaT cells; vs control): 10.7%; IL-6 concentration (IL-6 in SW620 cells; ELISA): 2.1 ± 0.22 pg/mL; reduction of IL-6 level (IL-6 in SW620 cells; vs control): 33.5%
